According to patent EP0292291B1, “Linear and cyclic analogs of alpha-msh fragments with extraordinary potency” (UNIVERSITY PATENTS, INC., priority 1987, dated 1988):
Like-named read-outs stand apart in the source and are kept apart here.

How the values were obtained:
Frog (Rana pipiens) Skin = settings: relative to alpha-MSH = 1.0; earlier studies; cited from earlier work
[1] = system: Lizard (Anolis carolinensis) Skin; settings: relative to alpha-MSH = 1.0; earlier studies; cited from earlier work
[2] = system: Lizard (Anolis carolinensis) Skin; assay type: cell-based; settings: for Biological Potency Lizard: relative to alpha-MSH = 1.0
Source text: Based upon the structural relationship of alpha-MSH (and its analogues and fragments) to its biological potency, using in vitro a frog skin bioassay system, the active site of alpha-MSH appears to be the common active core sequence suitably modified Ac-Met-Glu-His-Phe-Arg-Trp-Gly-NH₂. This fragment (Alpha-MSH₄₋₁₀) has been synthesized and tested for its melanocyte stimulating activity in frog skin and shown to be a weak agonist when compared to the native hormone. The amino acid exchanges in position 5(Glu) and 10(Gly) have not, previous to the making of the present invention, been investigated. […] The following table summarizes some of these studies.
The biological potencies of alpha-MSH, the linear, and the cyclic analogues were determined by their ability to stimulate melanosome dispersion in vitro in the frog and lizard bioassays. These in vitro assays provide clear cut dose response curves (between 2.5 x 10⁻¹¹ and 4 x 10⁻¹⁰ M) and can detect minimal concentration of alpha-MSH of about 10⁻¹¹ M. The assays are based upon the centrifugal dispersion of melanosomes (melanin granules) within the dendritic processes of integumental dermal melanophores leading to darkening of the skin. All the test solutions were prepared via serial dilutions from a stock solution (10⁻⁴ M). The frogs (Rans pipiens) used in these evaluations were obtained from Kons Scientific, Germantown, WI, and the lizards (Anolis carolinensis) were from the Snake Farm, La Place, LA.

Row | Substance | Relative Potency Frog (Frog (Rana pipiens) Skin) | Relative Potency Lizard [1] | Residual Activity Lizard ([2]; cyclic analogues, p = prolonged action) | Biological Potency Lizard ([2]; cyclic analogues) | Residual Activity Lizard ([2]; linear analogues, P = prolonged action) | Biological Potency Lizard ([2]; linear analogues)
1 | alpha-melanotropin [alpha-MSH] | 1.0 | 1.0 | p(-) | 1.0 | P(-) | 1.0
2 | Ac-[Nle⁴,D-Phe⁷]-alpha-MSH₄₋₁₀NH₂ | 0.02 | 10.0 | – | – | – | –
